Assay results from US20180193659A1, “PHOTODYNAMIC THERAPY LIGHT IRRADIATING DEVICE AND LIGHT IRRADIATING METHOD” (Public University Corporation Nagoya City University, priority 2015, published 2018).
Read-outs that look alike come from different tables or passages of the source.

Assays:
[1] = test system: HaCaT cells (human skin keratinocyte cell line); details: 1 mM 5-ALA; for PDT effect (1 - cell survival rate): 0.4 J/cm^2
Method: After 4 hours, the plurality of plates except for one plate were each subjected to five kinds of single-wavelength irradiation and four kinds of multiple-wavelength irradiation (specifically, two-wavelength irradiation) at respective amounts of irradiation of 0.2 J/cm^2, 0.4 J/cm^2, 0.6 J/cm^2, 0.8 J/cm^2, 1.0 J/cm^2, and 1.2 J/cm^2. Specifically, in the five kinds of single-wavelength irradiation, irradiation with each of light having a wavelength of 405 nm, light having a wavelength of 505 nm, light having a wavelength of 545 nm, light having a wavelength of 570 nm, and light having a wavelength of 635 nm was performed. The four kinds of multiple-wavelength irradiation with light in which the light having the wavelength of 405 nm and the light having the wavelength of 505 nm were combined, light in which the light having the wavelength of 405 nm and the light having the wavelength of 545 nm were combined, light in which the light having the wavelength of 405 nm and the light having the wavelength of 570 nm were combined, and light in which the light having the wavelength of 405 nm and the light having the wavelength of 635 nm were combined were performed. In the single-wavelength irradiation and the multiple-wavelength irradiation, as a light source of the light having the wavelength of 405 nm, an LED element in which the energy of light from the light source was 11 mW/cm^2 (irradiation distance: 100 mm) was used. […]
Subsequently, in the plurality of plates that had been irradiated with light and the plate that had not been irradiated with light, cultivation was performed over 18 hours. The cell survival rate was measured by an MTT assay using an XTT cell proliferation assay kit.
On the basis of the results of cell survival rate at an amount of irradiation of 0.4 J/cm^2, a therapeutic effect by a photodynamic therapy (hereinafter also referred to as “PDT effect”) was calculated by the following expression (1).
Herein, the cell survival rate reference value is a value calculated by the following expression (2). […]

[2] = test system: HaCaT cells (human skin keratinocyte cell line); assay: Experimental Example 2: cell survival rate of 5-ALA-treated HaCaT cells after 635 nm irradiation under pulse width modulation; format: cell-based; details: 1 mM 5-ALA, 12 J/cm^2, 125 kHz PWM, off time not more than 4 μs
Method: The irradiation was performed using a pulse width modulation control power supply (PWM power supply) with a frequency of 125 kHz capable of adjusting light using pulse width modulation at 256 modes as shown in FIG. 12. Specifically, in the condition (1), light irradiation was performed using pulse width modulation control in which the off time (t(off)) in pulse width modulation was 5.6 μs. In the condition (2), light irradiation was performed using pulse width modulation control in which the off time (t(off)) in pulse width modulation was 5.3 μs. In the condition (3), light irradiation was performed using pulse width modulation control in which the off time (t(off)) in pulse width modulation was 4.8 μs. In the condition (4), light irradiation was performed using pulse width modulation control in which the off time (t(off)) in pulse width modulation was 4.0 μs. In the condition (5), light irradiation was performed using pulse width modulation control in which the off time (t(off)) in pulse width modulation was 2.7 μs. In all the conditions (1) to (5), the pulse period (T) was 8 μs. In the condition (6), light irradiation in which the off time (t(off)) in pulse width modulation was 0 μs, that is, light irradiation that was continuous irradiation under the same condition as that in amplitude variable control was performed.

`NCC(=O)CCC(=O)O` [5-ALA, δ-aminolevulinic acid] was tested, and the “PDT effect, single-wavelength irradiation” value ([1]; 4 h, 405 nm compared with 505, 545, 570 and 635 nm) was “most excellent PDT effect”, the “PDT effect (1 - cell survival rate)” value ([1]; 405 nm + 505 nm) was “excellent PDT effect is obtained” and the “PDT effect (1 - cell survival rate)” value ([1]; 405 nm + any of 545, 570, 635 nm) was “sufficient PDT effect is not obtained”. The “PDT effect under pulse width modulation versus continuous irradiation” value [2] was “the same as that in continuous irradiation”.
